Measurements published in patent publication US5969098A, “Yeast-toxin-related protein for antimicrobial vaccine and sterilizing preservative use” (CyberChemics, Inc., priority 1997, dated 1999).
Where no end group is shown, it is not given here.

System: human red blood cells
Experiment: hemolysis of human red blood cells in whole blood (extracellular hemoglobin, spectrophotometric)
Type: cell-based
Settings: human red blood cells exposed in whole blood, peptide concentration 63 ug/mL
From the text: Table III lists the approximate pharmacokinetics of synthetic peptides described in the present invention which solubilize readily, persist in conformationally active secondary structures in vivo, and induce lysis of representative bacteria, yeast and fungi. These determinations derive from optical density readings (O.D.) and rely on spectrophotometric absorbance from known initial concentrations as reference standards. It is worth noting that although the peptide antimicrobials show 30+% homology with the yeast killer toxin beta subunit fragment, they have very favorable safety profiles on mammalian cells. For example, when human red blood cells are exposed in whole blood to SEQ. […] Perhaps, as significant, the safety profile derives from very specific amino acid substitutions, since substitution for less than 20% of the amino acids in SEQ. 1 renders SEQ. 2 hemolytic to 20% at 63 ug/mL and 35% substitution in SEQ. 1 renders SEQ. 3 hemolytic to 100%. Therefore, sequence identity and variation translate directly to the functional balance between microbial inhibition and mammalian safety. The optimal therapeutic index for dosage and effective antimicrobial inhibition of a particular polypeptide or salt thereof follow routinely without elaborate laboratory determinations by those skilled in the art of pharmacokinetics and metabolic pathways using, for instance, various cytochrome and liver enzymes in vivo.

Row | Sequence | hemolysis
1 | LLLLKKLLKLMNLLKKLGHY [SEQ. 3] | 100%
2 | LLLLKLLLKKNPKLKKLIGV [SEQ. 2] | 20%
3 | LVLLKKLMKKYKKLKKLGGL [SEQ. 1] | no hemolysis is detectable
